Assay results taken from BindingDB's records for doi:10.1016/j.bmcl.2008.08.104 (Genomics Institute of The Novartis Research Foundation, 2008).

Legend:
[1] = Inhibition of TEL fused KDR-mediated proliferation of TEL-KDR transformed mouse BA/F3 cells after 48 hrs by bright-glo luciferase assay
[2] = Inhibition of TEL fused Src-mediated proliferation of TEL-Src transformed mouse BA/F3 cells after 48 hrs by bright-glo luciferase assay
[3] = Inhibition of TEL fused Lyn-mediated proliferation of TEL-Lyn transformed mouse BA/F3 cells after 48 hrs by bright-glo luciferase assay
[4] = Inhibition of TEL fused InsR-mediated proliferation of TEL-InsR transformed mouse BA/F3 cells after 48 hrs by bright-glo luciferase assay
[5] = Inhibition of TEL fused Lck-mediated proliferation of TEL-Lck transformed mouse BA/F3 cells after 48 hrs by bright-glo luciferase assay

Row | SMILES | IC50 [5] | also measured
1 | Cc1cccc(Cl)c1Nc1nc2ccccc2n1-c1cc(Nc2ccc(CCN3CCOCC3)cn2)ncn1 [N-(2-chloro-6-methylphenyl)-1-(6-(5-(2-morpholinoethyl)pyridin-2-ylamino)pyrimidin-4-yl)-1H-benzo[d]imidazol-2-amine] |  | IC50 [1]: 1010 nM; IC50 [2]: 147 nM; IC50 [3]: 215 nM; IC50 [4]: 5160 nM
2 | Cc1nc(Nc2cc(-n3c(Nc4c(C)cccc4Cl)nc4ccccc43)ncn2)cc(N2CCN(CCO)CC2)n1 [2-(4-(6-(6-(2-(2-chloro-6-methylphenylamino)-1H-benzo[d]imidazol-1-yl)pyrimidin-4-ylamino)-2-methylpyrimidin-4-yl)piperazin-1-yl)ethanol] |  | IC50 [1]: 356 nM; IC50 [2]: 5 nM; IC50 [3]: 30 nM; IC50 [4]: 2340 nM
3 | Cc1cccc(Cl)c1Nc1nc2ccccc2n1-c1cc(Nc2cc(CN3CCOCC3)ccn2)ncn1 [N-(2-chloro-6-methylphenyl)-1-(6-(4-(morpholinomethyl)pyridin-2-ylamino)pyrimidin-4-yl)-1H-benzo[d]imidazol-2-amine] | 17 nM | 
4 | Cc1cccc(Cl)c1Nc1nc2ccccc2n1-c1cc(Cl)ncn1 [N-(2-chloro-6-methylphenyl)-1-(6-chloropyrimidin-4-yl)-1H-benzo[d]imidazol-2-amine] | 5700 nM | 
5 | Cc1cccc(Cl)c1Nc1nc2ccccc2n1-c1cc(Nc2ncnc(NCCN3CCOCC3)c2C)ncn1 [N4-(6-(2-(2-chloro-6-methylphenylamino)-1H-benzo[d]imidazol-1-yl)pyrimidin-4-yl)-5-methyl-N6-(2-morpholinoethyl)pyrimidine-4,6-diamine] | 359 nM | 
6 | Cc1cccc(Cl)c1Nc1nc2ccccc2n1-c1cc(N2CCOCC2)ncn1 [N-(2-chloro-6-methylphenyl)-1-(6-morpholinopyrimidin-4-yl)-1H-benzo[d]imidazol-2-amine] | > 10000 nM | 

More lines, main results first:

Row | IC50 [5] | SMILES | also measured
7 | 5040 nM | CCN(CC)CCCCNc1cc(-n2c(Nc3c(C)cccc3Cl)nc3ccccc32)ncn1 [N-(2-chloro-6-methylphenyl)-1-(6-(4-(diethylamino)butylamino)pyrimidin-4-yl)-1H-benzo[d]imidazol-2-amine] | 
8 | 1170 nM | Cc1cc(C)c(Nc2nc3ccccc3n2-c2cc(N)ncn2)c(Br)c1 [1-(6-aminopyrimidin-4-yl)-N-(2-bromo-4,6-dimethylphenyl)-1H-benzo[d]imidazol-2-amine] | 
9 | 583 nM | Cc1cc(C)c(Nc2nc3ccccc3n2-c2cc(N)ncn2)c(C)c1 [1-(6-aminopyrimidin-4-yl)-N-mesityl-1H-benzo[d]imidazol-2-amine] | 
10 | > 10000 nM | Cc1cccc(Cl)c1Nc1nc2ccccc2n1-c1cc(NN2CCOCC2)ncn1 [N-(2-chloro-6-methylphenyl)-1-(6-(morpholinoamino)pyrimidin-4-yl)-1H-benzo[d]imidazol-2-amine] | 
